Source: PMC10688098, “Intrinsic Solubility of Ionizable Compounds from pKa Shift” (ACS Omega, 2023)
Converted amounts (≈) assume the structure as drawn.

What was measured:
Type in all cases: physicochemical
[1] = Intrinsic pKa and intrinsic solubility of ICPD47 from pKa shift (spectrophotometric and potentiometric titration, linked ionization-dissolution model); settings: 25 °C, pKa shift model
Description: (§1) The compound ICPD47 is sparingly soluble at near-neutral pH. Solubility is approximately equal to or below 100 μM. The solutions exceeding the solubility limit (0.25, 0.5, and 1.0 mM) were prepared by adding 1.5 equiv of NaOH (0.375 0.75, and 1.5 mM, respectively; 0.5 equiv excess), thus shifting the compound to its highly soluble deprotonated negatively charged form. The deprotonated solutions were titrated with […] more concentrated HCl (2.5 mM; 5.0 mM; and 10 mM) containing the same concentration of DMSO as in the analyte solution (2.0% in all solutions).
The pH titration was performed with a 250 μL syringe that was filled with the titrant (acid), and the needle was placed into the sample cell filled with 2.5 mL of analyzed solution. A pH microelectrode was also inserted into the same cell. […] The analyzed solution was mixed after each injection using a pipet. The pH was measured potentiometrically using a Mettler Toledo MP220 pH meter with a combined glass InLab Microelectrode. […] The pH measurements were recorded only when the pH measurement instability was less than 0.01 min^–1. […]
The ICPD47 compound solutions were prepared in the universal buffer of different pH values from 4.5 to 10.5 at every 0.5 pH unit. […] The absorbance was measured with an Agilent 8453 UV–vis spectrophotometer using the same 2.5 mL cuvette as for potentiometric titration. […]

[2] = Solubility at near-neutral pH; settings: aqueous buffer
Description: as §1

[3] = Chemical stability in acid and base; settings: pH 2.0 to 12.0
[4] = Intrinsic pKa and intrinsic solubility from the model applied to literature titration data (Bjerrum plots)
Description: Since raw data formats were unavailable, we used WebPlotDigitizer to extract data from Bjerrum plots.[28],[29] Additionally, we used the equation for bound hydrogen ions per substance molecule to reverse engineer equivalent titrant added during the titration.[30] According to the model, any protonizable compound exists in three forms, the charged-dissolved form, the uncharged-dissolved form, and the uncharged-nondissolved (aggregated) form. We use the concept of 'the active concentration of an aggregate (precipitate)'. This concentration is mathematically equal to the amount of aggregate divided by volume of solution. This aggregate remains undissolved and is at an equilibrium (thermodynamic) concentration. The uncharged form of the ICPD47 compound exists in two forms, the dissolved form [ROH] and the aggregated form [ROH↓]. Furthermore, the total concentration of the ICPD47 compound, C, is equal to the sum of all three forms of the compound and includes the deprotonated concentration [RO^-]: [drawing 1] 1 Here we assume that the deprotonated form is highly soluble and there is no need to consider the aggregated form of the negatively charged deprotonated compound. […] A is inversely proportional to the intrinsic solubility, S, and is expressed and rearranged to [drawing 7] 7 [drawing 8] […] 12 cannot be expressed as a function pH = f([Hadd^+]), but may be solved numerically.

solubility ([1]; aqueous buffer, kinetic from dmso stock, aqueous universal buffer / titration with DMSO, read-out: Intrinsic solubility of the uncharged form) [µM]	pKa ([1]; read-out: Intrinsic pKa (model estimate))	solubility [2] [µM]	Chemical stability in acid and base [3]	pKa ([4]; model fit to literature titration data, value at infinite dilution)	solubility ([4]; water, thermodynamic from solid, model fit to literature titration data (ref 5, 22, 23)) [µM]	Structure (SMILES)
~75	6.85	≤ 100	chemically stable in acid and base	–	–	CCOc1ccc(-c2snnc2-c2cc(Cl)c(O)cc2O)cc1 [ICPD47]
–	–	–	–	9.6	270 (≈ 83.5 µg/mL)	CN(C)CCCOc1nn(Cc2ccccc2)c2ccccc12 [benzydamine]
